We go through two molecules from patent publication US20160114050A1, “Heparosan/Therapeutic Prodrug Complexes and Methods of Making and Using Same” (The Board of Regents of the University of Oklahoma, priority 2014, published 2016).

For series [1], the target named is T1, mammalian heparanase (HEPase) (Homo sapiens, UniProt Q9Y251).
T1 sequence (Q9Y251 158-543 limits assumed): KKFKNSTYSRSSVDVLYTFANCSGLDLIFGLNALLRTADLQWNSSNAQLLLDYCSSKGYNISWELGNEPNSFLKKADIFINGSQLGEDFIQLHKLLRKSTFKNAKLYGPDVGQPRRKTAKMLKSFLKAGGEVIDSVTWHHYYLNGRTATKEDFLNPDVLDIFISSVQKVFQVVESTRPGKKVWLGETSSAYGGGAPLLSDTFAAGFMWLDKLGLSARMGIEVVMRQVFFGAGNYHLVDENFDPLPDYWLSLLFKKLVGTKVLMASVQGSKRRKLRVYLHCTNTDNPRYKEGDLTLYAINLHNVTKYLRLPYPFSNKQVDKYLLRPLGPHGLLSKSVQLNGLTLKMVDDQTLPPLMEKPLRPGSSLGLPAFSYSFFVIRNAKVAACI
T1 sequence (Q9Y251 36-109 limits assumed): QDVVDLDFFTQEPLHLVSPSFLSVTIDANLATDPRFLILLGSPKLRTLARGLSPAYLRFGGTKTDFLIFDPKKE
To be noted: cited from earlier work.

Series [2] has as its system anti-heparosan antibodies. Put plainly: ELISA serological test for anti-heparosan IgG/IgM antibodies after repeated immunization. The series is classed as in vivo. The settings on record: rat, multiple boosts over approximately seven months. From the text: FIG. 7 depicts the serological test results for potential induction of anti-heparosan antibodies against a heparosan-containing molecule (HEP-G-CSF, heparosan sugar polymer attached to the Granulocyte Colony Stimulating Factor (G-CSF) protein) in a rat model. A control pre-immune sera was collected, and then three animals (Rat #1, #2, and #3) were immunized and periodically boosted with HEP-G-CSF eight times over an approximately seven month period followed by periodic test bleeds. The various serum samples were tested in 96-well plates via ELISA. First, the wells of the plate were coated either with: (i) bovine serum albumin (BSA) to assess the background (‘Control’ shown in grey bars); or (ii) heparosan-BSA (HEP-BSA) conjugate (‘HEP’; shown in black bars), to measure any potential immune response. After blocking all the wells with BSA and washing thoroughly, 1 μl of the pre-immunization serum (the negative control Prebleed, ‘PreB’) or post-immunization serum (collected either on week 9 (Bleed #1; B#1), week 15 (B#2), or week 30 (B#3)) was incubated with wells (the rats had 3, 5, or 9 injections of test antigen, respectively, before these three bleeds). After washing the wells, the presence of any bound rat antibodies was determined by interaction with either an anti-rat IgG (Panel A) or an anti-rat lgM (Panel B) goat secondary antibody-horseradish peroxidase conjugate. […]
(In an ELISA, binding on a coated surface is turned into a signal by an enzyme label.)

With Dermatan sulfate, in series [1], the “HEPase? substantially sensitive to cleavage by mammalian heparanase” value is recorded as “No”.

B1: HEP-G-CSF (conjugate, UniProt P09919 31-207, looked up)
Granulocyte …: TPLGPASSLPQSFLLKCLEQVRKIQGDGAALQEKLVSECATYKLCHPEELVLLGHSLGIPWAPLSSCPSQALQLAGCLSQLHSGLFLYQGLLQALEGISPELGPTLDTLQLDVADFATTIWQQMEELGMAPALQPTQGAMPAFASAFQRRAGGVLVASHLQSFLEVSYRVLRHLAQP
modifications: heparosan polymer conjugate
Take B1: the “induction of specific anti-heparosan antibodies (IgG, IgM)” value in series [2] is given as “no specific antibodies against heparosan were observed”.
